Data as given in US7964584B2, “Method of treating or preventing osteoporosis comprising administering to a patient in need thereof an effective amount of pharmaceutical composition comprising benzamidine derivatives or their salts, and alendronic acid or its salt” (Dong Wha Pharmaceutical Co., Ltd., priority 2008, dated 2011).

System: osteoclast differentiation (co-culture of bone marrow cells and osteoblasts)
Test: Osteoclast differentiation via co-culture of bone marrow cells and osteoblasts, count of TRAP(+) MNCs
Assay type: cell-based, mice
Details: individual treatment, 7 days culture; for relative number of TRAP(+) MNCs (mature osteoclasts with 6 or more nuclei), control group = 100%: n=4
Protocol: The osteoclast differentiation was induced by co-culture system between bone marrow cells and […] inhibitory effect of the drug on osteoclast differentiation was evaluated by treatment of single or combination formulation. […] Cells were removed from the bone marrow cells, followed by centrifugation. After the bone marrow cells were suspended in α-MEM medium supplemented with 10% FBS, and the numbers of the eukaryotic cells in the harvested bone marrow cells were counted and then immediately used for a co-culture system. The mouse calvaria were aseptically isolated from 1 2 day-old neonatal ICR mice, and the […], primary osteoblasts were isolated by sequential treatment with an enzyme solution of 0.2% collagenase. The isolated […] centrifuged, resuspended with α-MEM containing 10% FBS and cultured until confluent. Then, these cells were diluted to a desired cell number, and used for the experiment. The bone marrow cells (1×10^5 cells/well) and osteoblasts (3,000 cells/well) prepared in the above were plated in a 96-well plate using α-MEM medium supplemented with 10% FBS. At this time, differentiation factors, 1α,25-dihydroxyvitamin D3 (10^-8 M, hereinbelow, referred to as vitamin D3) and dexamethasone (10^-8 M), were co-added to the osteoclastic medium. The medium was replaced with fresh media containing the differentiation factors every 2 to 3 days. After 7 days, when multinucleated osteoclasts were observed, the medium was removed from the wells, and then the cells were fixed with PBS containing 10% formalin. An index of osteoclast formation was determined by counting number of Tartrate-Resistant Acid Phosphatase-positive multinucleated osteoclasts (herein below, referred to as TRAP(+) MNCs). The TRAP staining solution was contained naphtol AS-MX phosphate(pH5.0)as a substrate, Fast Red violet LB as a coloring agent and 50 mM tartaric acid and stored at a refrigerator until use. The number of TRAP(+) MNCs containing more than 6-7 or more nuclei were counted under a microscope. […] All experiments were performed using the osteoclastic media containing vitamin D3 and dexamethasone. […] Sodium alendronate hydrate was dissolved in purified water at a concentration of 0.2 mM, and then diluted 1,000 fold with the osteoclastic media to a final concentration of 0.2 μM. In this connection, a control group was maintained in 0.1% DMSO. Each experiment was performed by individual or combination treatment, as follows. […] The number of TRAP(+) MNCs with 6 or more nuclei were counted under a microscope. The results were expressed as a percentage of the relative number of mature osteoclast observed in each experimental group, when the number of mature osteoclast in the control group (solvent only) was regarded as 100%. […]

Compound	relative number of TRAP(+) MNCs (mature osteoclasts with 6 or more nuclei), control group = 100% (0.1 μM)	relative number of osteoclast, control group = 100% (0.3 μM) [%]	relative number of osteoclast, control group = 100% (0.5 μM) [%]	relative number of TRAP(+) MNCs (mature osteoclasts with 6 or more nuclei), control group = 100% (0.2 μM)
CS(=O)(=O)O.CS(=O)(=O)O.Cc1nc(-c2ccc(OCCCCCOc3ccc(C(=N)NO)cc3)cc2)c(C(C)C)s1 [N-hydroxy-4-{5-[4-(5-isopropyl-2-methyl-1,3-thiazol-4-yl)phenoxy]pentoxy}benzamidine dimethanesulfonate]	significant reduction	52.4	34.5	
NCCCC(O)(P(=O)(O)O)P(=O)(O)O [sodium alendronate, reference compound]				80.6% and significantly reduced
